According to article PMC5578959, “Selective LRRK2 kinase inhibition reduces phosphorylation of endogenous Rab10 and Rab12 in human peripheral mononuclear blood cells” (Scientific Reports, 2017):

Key:
Assay in all cases: KiNativ profiling in human PBMCs
Type in all cases: binding
BRAF = test system: T1, BRAF; settings: Lys2
T1 construct: purchased ActivX Technologies (KiNativ)
Description: (§1) Compounds were shipped to ActivX Technologies (San Diego, US) where LRRK2 target engagement and broad kinase profiling was performed using KiNativ™ procedures. Live cell treatment of human peripheral blood mononuclear cells (PBMCs) at two compound concentrations (1 µM and 0.1 µM) were used to evaluate and compare in vitro target engagement and kinase selectivity, respectively (see Supplementary File 1).

LYN = test system: T2, LYN
T2 construct: purchased ActivX Technologies (KiNativ)
Description: as §1

NDR2 = test system: T3, NDR2
T3 construct: purchased ActivX Technologies (KiNativ)
Description: as §1

Erk1 = test system: T4, Erk1; settings: Lys2
T4 construct: purchased ActivX Technologies (KiNativ)
Description: as §1

AKT1 = test system: T5, AKT1; settings: ATP Loop
T5 construct: purchased ActivX Technologies (KiNativ)
Description: as §1

eEF2K = test system: T6, eEF2K; settings: ATP
T6 construct: purchased ActivX Technologies (KiNativ)
Description: as §1

MAP2K4 = test system: T7, MAP2K4
T7 construct: purchased ActivX Technologies (KiNativ)
Description: as §1

CDC2 = test system: T8, CDC2; settings: Lys2
T8 construct: purchased ActivX Technologies (KiNativ)
Description: as §1

HCK = test system: T9, HCK
T9 construct: purchased ActivX Technologies (KiNativ)
Description: as §1

PI4KB = test system: T10, PI4KB; settings: ATP
T10 construct: purchased ActivX Technologies (KiNativ)
Description: as §1

CDK11,CDK8 = settings: Lys2
Description: as §1

Wnk1,Wnk2,Wnk4 = settings: Activation Loop
Description: as §1

CHK2 = test system: T11, CHK2
T11 construct: purchased ActivX Technologies (KiNativ)
Description: as §1

MAP3K6 = test system: T12, MAP3K6; settings: Lys2
T12 construct: purchased ActivX Technologies (KiNativ)
Description: as §1

NEK6,NEK7 = settings: Lys2
Description: as §1

MAP3K2,MAP3K3 = settings: Lys2
Description: as §1

MSK2 domain1 = test system: T13, MSK2 domain1; settings: Lys2
T13 construct: MSK2 domain1; purchased ActivX Technologies (KiNativ)
Description: as §1

ULK3 = test system: T14, ULK3
T14 construct: purchased ActivX Technologies (KiNativ)
Description: as §1

Cn1cc(-c2c[nH]c3ncnc(N4CCOCC4)c23)cc1C#N [PFE-360]
% Inhibition (BRAF; 0.1µM): -13.9%
% Inhibition (BRAF; 1µM): -14.3%
% Inhibition (LYN; 0.1µM, Activation Loop): 7.3%
% Inhibition (LYN; 0.1µM, Lys1): -30.4%
% Inhibition (LYN; 1µM, Activation Loop): 7.8%
% Inhibition (LYN; 1µM, Lys1): 7.4%
% Inhibition (NDR2; 0.1µM, Lys1): -18.6%
% Inhibition (NDR2; 0.1µM, Lys2): 2.7%
% Inhibition (NDR2; 1µM, Lys1): -5.5%
% Inhibition (NDR2; 1µM, Lys2): -8.1%
% Inhibition (Erk1; 0.1µM): 7.7%
% Inhibition (Erk1; 1µM): 3.7%
% Inhibition (AKT1; 0.1µM): -6.3%
% Inhibition (AKT1; 1µM): -3.2%
% Inhibition (eEF2K; 0.1µM): 15.7%
% Inhibition (eEF2K; 1µM): -1.8%
% Inhibition (MAP2K4; 0.1µM, Lys1): -7.3%
% Inhibition (MAP2K4; 0.1µM, Lys2): 7.4%
% Inhibition (MAP2K4; 1µM, Lys1): 11%
% Inhibition (MAP2K4; 1µM, Lys2): -3.8%
% Inhibition (CDC2; 0.1µM, peptide DLKPQNLLIDDK): -1.5%
% Inhibition (CDC2; 0.1µM, peptide DLKPQNLLIDDKGTIK): -4.2%
% Inhibition (CDC2; 1µM, peptide DLKPQNLLIDDK): 4.1%
% Inhibition (HCK; 0.1µM, Activation Loop): -0.8%
% Inhibition (HCK; 0.1µM, Lys1): -20.8%
% Inhibition (HCK; 1µM, Activation Loop): -4.1%
% Inhibition (HCK; 1µM, Lys1): 12.3%
% Inhibition (PI4KB; 0.1µM, peptide LLSVIVKCGDDLRQELLAFQVLK): -14.7%
% Inhibition (PI4KB; 0.1µM, peptide VPHTQAVVLNSKDK): 3.6%
% Inhibition (PI4KB; 1µM, peptide LLSVIVKCGDDLRQELLAFQVLK): -10.6%
% Inhibition (PI4KB; 1µM, peptide VPHTQAVVLNSKDK): -12.4%
% Inhibition (CDK11,CDK8; 0.1µM): -9.1%
% Inhibition (CDK11,CDK8; 1µM): 9.6%
% Inhibition (Wnk1,Wnk2,Wnk4; 0.1µM): 4.7%
% Inhibition (Wnk1,Wnk2,Wnk4; 1µM): 2.2%
% Inhibition (CHK2; 0.1µM, Lys1): 3.6%
% Inhibition (CHK2; 0.1µM, Lys2): -6.7%
% Inhibition (CHK2; 1µM, Lys1): -2.7%
% Inhibition (CHK2; 1µM, Lys2): -12.6%
% Inhibition (MAP3K6; 0.1µM): -5.9%
% Inhibition (MAP3K6; 1µM): -0.1%
% Inhibition (NEK6,NEK7; 0.1µM): -2.4%
% Inhibition (NEK6,NEK7; 1µM): -18.6%
% Inhibition (MAP3K2,MAP3K3; 0.1µM): -2.6%
% Inhibition (MAP3K2,MAP3K3; 1µM): -12.9%
% Inhibition (MSK2 domain1; 0.1µM): 2.2%
% Inhibition (MSK2 domain1; 1µM): 1.9%
% Inhibition (ULK3; 0.1µM, Lys1): 1%
% Inhibition (ULK3; 0.1µM, Lys2): -2.5%
% Inhibition (ULK3; 1µM, Lys1): -3%
% Inhibition (ULK3; 1µM, Lys2): 0.6%
